# Laboratory results as given in patent US20180071339A1, “COMBINATION OF PHARMACEUTICAL PREPARATIONS FOR TUMOR CHEMOTHERAPY” (HUBEI SOUNDNY BIOTECHNOLOGY CO., LTD., priority 2015, published 2018).
# Counter-ions that a name gives are not always drawn.
# Experiments:
# [1] = tested on: mouse bladder cancer cell line MB49; assay: mouse orthotopic bladder cancer model; format: in vivo, C57 mice; conditions: compared to mice firstly treated with cell vesicles then administered with Dox or HCPT; bladder infusion; bladders taken on day 12; FIGS. 7A and 7B
# Protocol: Mouse bladder cancer cells are cultured with 10% of FBS 1640 basal medium until logarithm phase, and are resuspended with PBS into cell suspension with a cell concentration of 10^7/mL after being digested with trypsin. After C57 mice were anesthetized, 100 uL 0.1 mg/mL of polylysin solution are infused into mouse bladder using intravenous indwelling needle for pre-treatment for 20 min, and then 100 uL cell suspension are infused into the bladder after the polylysin solution is excreted, and cell suspension is excreted after holding for 1 h.
# Preparing the cell vesicles with chemotherapy drugs wrapped therein: 100 uL chemotherapy drug (Dox or HCPT) are administered to 1 ml 1×10^7 mouse bladder cancer cells (1 mg/mL); 48 hours after administration of chemotherapy drugs, firstly centrifuging cell culture medium that contains apoptotic tumor cells at the rotational speed of 1300 rpm, 5000 rpm, respectively, each for 10 minutes and collecting a first supernatant; then centrifuging the first supernatant at the centrifugal force of 14000 g for 1 minute to remove cells and debris, and collecting a second supernatant; further centrifuging the second supernatant at the centrifugal force of 14000 g for 1 hour, then collecting precipitate to obtain cell vesicles with chemotherapy drugs wrapped therein. […]
# [2] = tested on: human breast cancer doxorubicin hydrochloride drug resistant strains ADR/MCF-7; assay: uptake of doxorubicin drugs by ADR/MCF-7, two-photon confocal microscope; format: cell-based; conditions: 1 μg/ml doxorubicin hydrochloride for 4 hours, test group first incubated with cell vesicles for 12 hours, FIG. 3
# Protocol: (§1) Cell vesicles derived from human breast cancer cell line MCF-7 are obtained in accordance with the method in Example 2;
# (§2) 1×10^5 human breast cancer cells MCF-7, tumor repopulating cells MCF-7/TRC, human breast cancer doxorubicin hydrochloride drug resistant cells ADR/MCF-7 were planted in the confocal dish, respectively. Cell vesicles that prepared above and derived from human breast cancer cell lines MCF-7 are added to the dish containing the above three kinds of cells respectively, with amount of 5×10^5/dish, and incubated for 12 hours, used as a test group;
# (§3) Human breast cancer cells MCF-7, tumor repopulating cells MCF-7/TRC, and human breast cancer doxorubicin hydrochloride drug resistant strains ADR/MCF-7 without addition of cell vesicles are used as a control group. […]
# [3] = tested on: tumor repopulating cells MCF-7/TRC; assay: uptake of doxorubicin drugs by MCF-7/TRC, two-photon confocal microscope; format: cell-based, human; conditions: 1 μg/ml doxorubicin hydrochloride for 4 hours, test group first incubated with cell vesicles for 12 hours, FIG. 3
# Excerpt: as §1
# 5000 MCF-7 human breast cancer cells are planted in the three-dimensional fibrous protein gel, and after 5 days culturing, a stem cell-like colony is formed, these cells are referred to as tumor repopulating cells, that is, MCF-7/TRC.
# as §2, §3
# [4] = tested on: human breast cancer cells MCF-7; assay: excretion of doxorubicin drugs from MCF-7 cells, two-photon confocal microscope; format: cell-based; conditions: 1 μg/ml doxorubicin for 4 hours; test group first incubated with 5×10^5 cell vesicles for 12 hours; FIG. 2
# Protocol: Human breast cancer cell line MCF-7 is cultured in RPMI Medium 1640, so that the cell amount reaches 2×10^7/ml; human breast cancer cell line MCF-7 is exposed to UV radiation for 60 minutes; 18 hours after UV radiation, human breast cancer cell line MCF-7 starts apoptosis, which is observed under microscope; collecting cell vesicles from the above apoptotic tumor cells by centrifugation or filtration procedure, as described in Example 1;
# 1×10^5 normally cultured human breast cancer cells MCF-7 are planted in a confocal dish, and then 5×10^5 cell vesicles prepared above and derived from human breast cancer cell line MCF-7 are added into the confocal dish and incubated with MCF-7 for 12 hours, and used as a test group (i.e., MCF-7 cells+MPs); 1×10^5 human breast cancer cells MCF-7 without adding the cells vesicles are used as a control group (i.e., MCF-7 cells).
# The test group and the control group are washed once with PBS respectively, and then a medium containing 1 μg/ml of doxorubicin drugs is added, 4 hours later, two groups are stabilized with 4% of paraformaldehyde for 20 minutes, the excretion of doxorubicin drugs from the human breast cancer cell MCF-7 in test group and control group is observed under the Two-photon confocal microscope.
# [5] = tested on: human breast cancer cells MCF-7; assay: uptake of doxorubicin drugs by MCF-7, two-photon confocal microscope; format: cell-based; conditions: 1 μg/ml doxorubicin hydrochloride for 4 hours, test group first incubated with cell vesicles for 12 hours, FIG. 3
# Protocol: as §1, §2, §3
Structure (SMILES),treatment effects [1],drug content in nucleus [2],drug content in nucleus [3],doxorubicin drug quantity in nucleus [4],excretion of doxorubicin drugs from MCF-7 cells [4],doxorubicin drug content in the nucleus [5]
"CC[C@@]1(O)C(=O)OCc2c1cc1n(c2=O)Cc2cc3cc(O)ccc3nc2-1 [HCPT, hydroxycamptothecin]",weaker treatment effects,,,,,
"COc1cccc2c1C(=O)c1c(O)c3c(c(O)c1C2=O)C[C@@](O)(C(=O)CO)C[C@@H]3O[C@H]1C[C@H](N)[C@H](O)[C@H](C)O1 [doxorubicin, doxorubicin hydrochloride]",weaker treatment effects,less than that in control group MCF-7,less than that in control group MCF-7,drug quantity in nucleus is not high,excrete a great number of drugs outside of the cell membrane,not high
